Laboratory results: patent publication US20190092720A1, “FUNCTIONALIZED BENZAMIDE DERIVATIVES AS ANTIVIRAL AGENTS AGAINST HBV INFECTION” (BARUCH S. BLUMBERG INSTITUTE, priority 2012, published 2019)

How the values were obtained:
[1] = test system: HBV replication in AML12HBV10 cells; test: Antiviral efficacy in AML12HBV10 cells (HBV DNA dot-blot hybridization); format: cell-based, Hepatitis B virus (HBV); conditions: Hepatitis B virus, AML12HBV10, 48 h, read-out: AML12HBV10 EC50, concentration that reduces the amount of HBV DNA by 50%, serial dilution 50 μM to 0.39 μM
Method: The HBV replication inhibitors of the present invention are capable of treating and preventing diseases associated with HBV infection.
The antiviral efficacy of the compounds of the disclosure, as presented in Table 1, were determined in AML12HBV10 cells. AML12HBV10 is an immortalized murine hepatocyte (AML12)-derived stable cell line that supports robust HBV replication in a tetracycline inducible manner (Xu et al.). The cells were seeded into 96 well plates at a density of 2×10^4 cells per well and cultured in DMEM/F12 media with 10% fetal bovine serum in the absence of tetracycline to allow pgRNA transcription and HBV DNA replication. One day after seeding, cells were left untreated or treated with a serial dilution of testing compounds, ranging from 50 μM to 0.39 μM, for 48 hours. Cells were then lysed by adding into each well of 100 μl lysis buffer containing 10 mM Tris-HCl (pH 7.6), 1 mM EDTA, 100 mM NaCl and 1% NP-40 and incubated at 37° C. for 30 minutes. Half amount (50 μl) of cell lysate from each well was combined with equal volume of denaturing solution containing 0.5N NaOH and 1.5M NaCl. After 5 minute incubation, 100 µl of neutralization solution (1M Tris-HCl, pH 7.4, 1.5M NaCl) was added into each well. The denatured cell lysates (totally 200 μl) were applied onto Nylon membrane using 96-well dot-blot manifold (Biorad). HBV DNA in the cell lysates were determined by dot-blot hybridization with alpha-^32P-UTP-labelled riboprobe specific for HBV minus strand DNA. The antiviral efficacy of a compound of the disclosure was expressed as the concentration that reduces the amount of HBV DNA by 50% (EC50).

[2] = Cytotoxicity in AML12HBV10 cells (MTT assay); format: cell-based, murine; conditions: mouse, concentration that reduces viability by 50%, serial dilution 50 μM to 0.39 μM
Method: Determination of cytotoxicity of compounds of the disclosure in AML12HBV10 cells: To determine the cytotoxicity of the compounds, AML12HBV10 cells were seeded into 96-well plates at a density of 2×10^4 cells per well and cultured in DMEM/F12 media with 10% fetal bovine serum in the absence of tetracycline to allow pgRNA transcription and HBV DNA replication. One day after seeding, cells were left untreated or treated with a serial dilution of testing compounds, ranging from 50 μM to 0.39 μM, for 48 hours. The cell viability was measured by a MTT assay, following procedure provided by the manufacturer (Promega). The cytotoxicity of a compound was expressed as the concentration of compound that reduces the viability of the cells by 50% (CC50).

With O=C(Nc1ccc(O)cc1)c1scc2c1CCCC2 [Entry 1] as the compound, how does the EC50 [1] read?
The EC50 was 36 µM.

What about the CC50 at 48 h [2] of the same compound?
Its CC50 at 48 h is over 50 µM.

Which EC50 [1] does the source give for O=C(Nc1ccccc1)c1scc2c1CCCC2 [Entry 2] here?
Its EC50 is 9 µM.

And the CC50 at 48 h [2]?
The CC50 at 48 h was over 50 µM.

For O=C(Nc1ccc(F)cc1)c1scc2c1CCCC2 [Entry 3], which EC50 [1] is on record?
The EC50 was 25 µM.

What about the CC50 at 48 h [2] of the same compound?
Its CC50 at 48 h is over 50 µM.

With COc1cccc(NC(=O)c2scc3c2CCCC3)c1 [Entry 4] as the compound, how does the EC50 [1] read?
The EC50 was 8 µM.

And the CC50 at 48 h [2]?
Its CC50 at 48 h is over 50 µM.

With O=C(Nc1cccc(C(F)(F)F)c1)c1scc2c1OCCO2 [Entry 5] as the compound, how does the EC50 [1] read?
Its EC50 is 8.5 µM.

And the CC50 at 48 h [2]?
The CC50 at 48 h was over 50 µM.

Which EC50 [1] does the source give for O=C(Nc1cccc(Cl)c1)c1ccccc1 [Entry 8] here?
The EC50 was 46.2 µM.

And the CC50 at 48 h [2]?
The CC50 at 48 h was over 50 µM.

For O=C(Nc1cccc(I)c1)c1scc2c1OCCO2 [Entry 9], which EC50 [1] is on record?
The EC50 was 2.8 µM.

And the CC50 at 48 h [2]?
The CC50 at 48 h was over 50 µM.

With O=C(Nc1cccc(Cl)c1)c1csc2ccccc12 [Entry 11] as the compound, how does the EC50 [1] read?
Its EC50 is 30 µM.

What about the CC50 at 48 h [2] of the same compound?
Its CC50 at 48 h is over 50 µM.

Which EC50 [1] does the source give for O=C(Nc1cccc(Cl)c1)c1cccc(F)c1F [Entry 12] here?
The EC50 was 30 µM.

What about the CC50 at 48 h [2] of the same compound?
The CC50 at 48 h was over 50 µM.

With O=C(Nc1cccc(Cl)c1)c1ccccc1Cl [Entry 13] as the compound, how does the EC50 [1] read?
The EC50 was 12.3 µM.

What about the CC50 at 48 h [2] of the same compound?
Its CC50 at 48 h is over 50 µM.

For O=C(Nc1cccc(Cl)c1)c1c(F)cccc1F [Entry 15], which EC50 [1] is on record?
Its EC50 is 31.2 µM.

And the CC50 at 48 h [2]?
Its CC50 at 48 h is over 50 µM.

Which EC50 [1] does the source give for O=C(Nc1cccc(Cl)c1)c1c(Cl)cccc1Cl [Entry 16] here?
The EC50 was 35.3 µM.

And the CC50 at 48 h [2]?
The CC50 at 48 h was over 50 µM.

For O=C(Nc1cccc(Cl)c1)c1ccccc1F [Entry 17], which EC50 [1] is on record?
The EC50 was 16.5 µM.

And the CC50 at 48 h [2]?
Its CC50 at 48 h is over 50 µM.

For O=C(Nc1cc(Cl)cc(Cl)c1)c1cccc2c1OCCO2 [Entry 20], which EC50 [1] is on record?
Its EC50 is 4.85 µM.

And the CC50 at 48 h [2]?
Its CC50 at 48 h is over 50 µM.

Which EC50 [1] does the source give for O=C(Nc1ccc(F)c(F)c1)c1ccc2ccccc2c1 [Entry 21] here?
The EC50 was 23.9 µM.

And the CC50 at 48 h [2]?
The CC50 at 48 h was over 50 µM.

Which EC50 [1] does the source give for O=C(Nc1ccc(F)c(F)c1)c1scc2c1OCCO2 [Entry 22] here?
The EC50 was under 0.4 µM.

And the CC50 at 48 h [2]?
The CC50 at 48 h was over 50 µM.

For O=C(Nc1cccc(I)c1)c1ccc2ccccc2c1 [Entry 23], which EC50 [1] is on record?
Its EC50 is 19.4 µM.

And the CC50 at 48 h [2]?
The CC50 at 48 h was over 50 µM.

With O=C(Nc1cccc(Cl)c1)c1cccc2c1OCO2 [Entry 24] as the compound, how does the EC50 [1] read?
Its EC50 is 1.14 µM.

And the CC50 at 48 h [2]?
The CC50 at 48 h was over 10 µM.

Which EC50 [1] does the source give for O=C(Nc1cccc(F)c1)c1cccc2c1OCCO2 [Entry 25] here?
The EC50 was 0.41 µM.

What about the CC50 at 48 h [2] of the same compound?
The CC50 at 48 h was over 10 µM.

With O=C(Nc1ccc(F)cc1)c1cccc2c1OCCO2 [Entry 26] as the compound, how does the EC50 [1] read?
The EC50 was 0.4 µM.

And the CC50 at 48 h [2]?
Its CC50 at 48 h is over 10 µM.

With O=C(Nc1cccc(OC(F)(F)F)c1)c1cccc2c1OCCO2 [Entry 27] as the compound, how does the EC50 [1] read?
The EC50 was 11.2 µM.

What about the CC50 at 48 h [2] of the same compound?
Its CC50 at 48 h is over 10 µM.

Which results are given for O=C(Nc1ccccc1F)c1cccc2c1OCCO2 [Entry 28]?
EC50 [1]: 10.8 µM; CC50 at 48 h [2]: > 10 µM

For O=C(Nc1ccc(Br)cc1F)c1cccc2c1OCCO2 [Entry 29], which EC50 [1] is on record?
The EC50 was 10.6 µM.

And the CC50 at 48 h [2]?
Its CC50 at 48 h is over 10 µM.

With O=C(Nc1cc(F)ccc1F)c1cccc2c1OCCO2 [Entry 30] as the compound, how does the EC50 [1] read?
Its EC50 is 14.9 µM.

And the CC50 at 48 h [2]?
Its CC50 at 48 h is over 10 µM.

Which results are given for O=C(Nc1ccc(F)c(F)c1)c1cccc2c1OCCO2 [Entry 31]?
EC50 [1]: 0.17 µM; CC50 at 48 h [2]: > 10 µM

For O=C(Nc1ccc(F)cc1F)c1cccc2c1OCCO2 [Entry 32], which EC50 [1] is on record?
Its EC50 is 8.53 µM.

What about the CC50 at 48 h [2] of the same compound?
Its CC50 at 48 h is over 10 µM.

With O=C(Nc1ccc(F)c(F)c1)c1cccc(Cl)c1Cl [Entry 33] as the compound, how does the EC50 [1] read?
Its EC50 is 1.86 µM.

And the CC50 at 48 h [2]?
Its CC50 at 48 h is over 10 µM.

Which EC50 [1] does the source give for O=C(Nc1ccc(F)cc1F)c1cccc(Cl)c1Cl [Entry 34] here?
Its EC50 is 13.2 µM.

What about the CC50 at 48 h [2] of the same compound?
The CC50 at 48 h was over 10 µM.

Which results are given for O=C(Nc1ccc(Cl)c(Cl)c1)c1cccc2c1OCCO2 [Entry 35]?
EC50 [1]: 0.49 µM; CC50 at 48 h [2]: > 10 µM

What does the source list for O=C(Nc1ccc(F)cc1Cl)c1cccc2c1OCCO2 [Entry 36]?
EC50 [1]: 7.41 µM; CC50 at 48 h [2]: > 10 µM

With O=C(Nc1ccc(Cl)cc1F)c1cccc2c1OCCO2 [Entry 37] as the compound, how does the EC50 [1] read?
Its EC50 is 8.88 µM.

What about the CC50 at 48 h [2] of the same compound?
The CC50 at 48 h was over 10 µM.

With O=C(Nc1ccc(F)c(Cl)c1)c1cccc2c1OCCO2 [Entry 38] as the compound, how does the EC50 [1] read?
Its EC50 is 0.05 µM.

And the CC50 at 48 h [2]?
Its CC50 at 48 h is over 10 µM.

What does the source list for O=C(Nc1ccc(F)c(F)c1F)c1cccc2c1OCCO2 [Entry 39]?
EC50 [1]: 3 µM; CC50 at 48 h [2]: > 10 µM

Which results are given for O=C(Nc1c(F)cc(F)cc1F)c1cccc2c1OCCO2 [Entry 40]?
EC50 [1]: 10.5 µM; CC50 at 48 h [2]: > 10 µM

With O=C(Nc1ccc(Cl)c(F)c1)c1cccc2c1OCCO2 [Entry 41] as the compound, how does the EC50 [1] read?
The EC50 was 1.48 µM.

What about the CC50 at 48 h [2] of the same compound?
Its CC50 at 48 h is over 25 µM.
